Measurements published in patent publication US20210101879A1, “AMYLOID PROTEIN-SELECTIVE BACE INHIBITORS (ASBIs) FOR ALZHEIMER?S DISEASE” (The Regents of the University of California, priority 2018, published 2021).
“And” between values parts separate entries of the source, which are not always exact repeats. Equal entries are not always repeated. Where two headings read alike, the source gives them in different places.

What was measured:
BACE-1 = BACE-1 (Homo sapiens (Human), UniProt P56817); assay: cell-free BACE enzyme assay with P5-P5′ substrate; format: biochemical
Chain of BACE-1 (P56817 46-501): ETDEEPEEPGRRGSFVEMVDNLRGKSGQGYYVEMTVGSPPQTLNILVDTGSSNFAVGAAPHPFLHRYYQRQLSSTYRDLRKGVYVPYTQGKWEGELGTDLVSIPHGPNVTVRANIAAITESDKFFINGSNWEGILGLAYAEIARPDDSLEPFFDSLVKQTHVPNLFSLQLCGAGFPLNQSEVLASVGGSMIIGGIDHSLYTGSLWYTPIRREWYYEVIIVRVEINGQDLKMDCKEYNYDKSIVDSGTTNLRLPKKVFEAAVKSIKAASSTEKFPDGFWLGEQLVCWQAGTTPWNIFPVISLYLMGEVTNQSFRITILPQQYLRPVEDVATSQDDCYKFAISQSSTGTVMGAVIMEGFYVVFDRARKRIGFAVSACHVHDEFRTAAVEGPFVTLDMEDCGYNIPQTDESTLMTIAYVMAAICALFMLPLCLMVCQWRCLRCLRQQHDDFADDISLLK
Description: For the assay, 4 μL of assay buffer was added to each well, followed by 2 μL of BACE-1 diluted in assay buffer to 7.5 ng/μL. Then, 2 μL of inhibitor, at concentrations along an 11 pt. two-fold dilution series starting at 0.5 μM, were added to appropriate wells and incubated for 30 minutes at room temperature. Afterwards, 2 μL of P5-P5′ BACE-1 substrate, diluted to 50 μM in assay buffer, were added to each well, after which the signal generated was read every 30 minutes at 25° C. for 2 hr.

Cathepsin D (CatD) = Cathepsin D (CatD) (Homo sapiens (Human), UniProt P07339); assay: Cathepsin-D assay; format: biochemical
Chain of Cathepsin D (CatD) (P07339 65-412, species assumed): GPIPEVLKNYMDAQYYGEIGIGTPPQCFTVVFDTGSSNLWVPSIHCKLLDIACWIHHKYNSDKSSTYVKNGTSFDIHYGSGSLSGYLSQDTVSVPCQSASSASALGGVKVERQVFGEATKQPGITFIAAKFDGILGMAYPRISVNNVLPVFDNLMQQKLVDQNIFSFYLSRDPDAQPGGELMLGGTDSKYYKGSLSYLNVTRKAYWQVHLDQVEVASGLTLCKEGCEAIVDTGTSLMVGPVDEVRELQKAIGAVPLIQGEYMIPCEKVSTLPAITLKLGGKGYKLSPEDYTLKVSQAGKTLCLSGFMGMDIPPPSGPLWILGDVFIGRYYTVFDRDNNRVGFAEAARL
Description: For the assay, 4 μL of assay buffer was added to each well, followed by 2 μL of Cathepsin D (CatD) diluted in assay buffer to 5 ng/μL. Then, 2 μL of inhibitor, prepared to get a testing concentration of 20 μM, were added to appropriated wells and incubated for 30 minutes at room temperature. Afterwards, 2 μL of CatD substrate, diluted to 50 μM in assay buffer, were added to each well, after which the signal generated was read every 30 minutes at 25° C. for 1 hr. Signals shown in FIG. 6 are representative of readings at 1 hr.

PAMPA = format: in vitro ADME
[1] = test system: CHO-7W cells (stably transfected with human amyloid precursor protein wildtype); assay: CHO-7W cell assay (AlphaLISA of media); format: cell-based, Chinese hamster; conditions: treatment for 24 hours
Description: For the assay, 50 μL of CHO-7W cells were added to each well at 4×10^5 cells/mL. Then, 50 μL of inhibitor, prepared for tested concentrations, were added to appropriated wells and incubated for 24 hours at 37° C. Afterwards, media from each well is collected and assayed using an AlphaLISA assay for respective analytes.

[2] = test system: neuregulin 1 (NRG-1) (Homo sapiens (Human)); assay: NRG1 cleavage assay in NRG1-BACE1 co-transfected 293T cells; format: cell-based
Description: (§1) 293T cells were plated in 96-well plates at 40,000 cells/well, incubated overnight at 37° C. and 5% CO2. Next day, cells were co-transfected with NRG1-BACE1 plasmids or PSGL1-BACE1 plasmids using Lipofectamine2000, as describe previously. Six hours after transfection, the reagents were removed and media containing the different compounds at various concentrations were loaded into each well.
(§2) After overnight incubation with the compounds, 20 μL of media were removed and added to a new plate. Then, 200 μl of reaction solution (0.1 M glycine, pH 10.4, 1 mM MgCl2, 1 mM ZnCl2 containing 1 mg/ml 4-nitrophenyl phosphate disodium salt hexahydrate, Sigma S0942) were loaded into each well of the plate. The absorbance was read at 405 nm for 60 min in 30 min intervals in a SpectraMax M5.
(§3) These compounds were diluted to 10 mM in DMSO. This solution was diluted to 20, 10, 2, 1, 0.2 and 0.02 μM in DMEM high Glucose containing 10% of FBS and 1% of Penicillin-Streptomycin containing 0.2% DMSO.

[3] = test system: p-selectin glycoprotein ligand 1 (PSGL-1) (Homo sapiens (Human)); assay: PSGL1 cleavage assay in PSGL1-BACE1 co-transfected 293T cells; format: cell-based
Description: as §1, §2, §3

pharmacokinetics in mice = format: in vivo
BACE cleavage of APP [4] = assay: pilot study in AD model mice; format: in vivo; conditions: orally 30 mg/kg/day for 10 days
[5] = pharmacokinetic study in rats; format: in vivo; conditions: wildtype Sprague-Dawley rats, 30 mg/kg orally, at 2 hours
BACE cleavage of APP [6] = assay: pharmacodynamic pilot study in rats (CSF and brain tissue); format: in vivo, Sprague-Dawley rats; conditions: 30 mg/kg orally

IC50 (BACE-1; cell-free BACE assay): 22 nM | IC50 (BACE-1; cell-free, several replicate values per cell, some flagged 's' (flag not defined), read-out: BACE1 IC50): 5 to 10 nM and 19 nM and 11.2 nM and 16 nM and 11 nM and 15 nM and 24 nM and 14 nM | IC50 (Cathepsin D (CatD)): 47.1 µM | soluble amyloid precursor protein beta (sAPPβ) [1]: significantly decreased | inhibitory activity in cleavage of neuregulin 1 (NRG-1) [2]: little cleavage | inhibitory activity in cleavage of p-selectin glycoprotein ligand 1 (PSGL-1) [3]: little cleavage | brain penetrance (pharmacokinetics in mice): brain-penetrant | peak in brain (pharmacokinetics in mice; oral delivery at 30 mg/kg, one hour post-dosing): 74 ng/g | brain peak [5]: 182 ng/g
Structure (SMILES): Cc1cc(C2(c3cccc(-c4cncnc4)c3)N=C(N)N(C)C2=O)ccc1OC(F)F (racemic) [FAH-65, 2-amino-5-(4-(difluoromethoxy)-3-methylphenyl)-3-methyl-5-(3-(pyrimidin-5-yl)phenyl)-3,5-dihydro-4H-imidazol-4-one]
PAMPA (PAMPA): 0.44 and 0.45 and 0.46 and 0.47 and 0.52 and 0.48 and 0.49 | amyloid-beta (Aβ) [1]: significantly decreased | BACE/γ-secretase product Aβ (BACE cleavage of APP [4]): trend to decrease | decrease of APP-derived BACE cleavage product βCTF (beta C-terminal fragment) (BACE cleavage of APP [4]): significantly | sAPPβ in CSF (BACE cleavage of APP [6]; at 3 and 6 hours, vs untreated controls): reduced | Aβ1-40 levels (BACE cleavage of APP [6]; compared to control, decrease persisted to 24 hours): decreased
